Results published in US20110105393A1, “METHODS FOR PROMOTING STEM CELL PROLIFERATION AND SURVIVAL” (priority 2007, published 2011).

What was measured:
mTOR = mTOR phosphorylation in NSC cultures (Western blot); assay type: cell-based, mouse
Protocol: (§1) Cell culture: E13.5 cortical embryonic mouse CNS stem cells were grown as previously described (Johe, et al., Genes Dev 10, 3129-40, 1996). Cells were expanded in serum-free DMEM/F12 medium with N2 supplement and FGF2 (20 ng/ml) for 5 days under 5% oxygen conditions and were re-plated fresh or from frozen stocks at 1,000-10,000 cells per cm^2. FGF2 was included throughout the studies, unless otherwise stated. Adult rat (3-6 months old) or adult mouse (2-4 months old) SVZ NSC cultures were grown in the same medium as the fetal cultures.
Fetal NSCs in culture express Ang-1, and treatment (2 days) with Dll4 maintained it whereas CNTF reduced it. Ang-2 expression was maintained under these conditions. […] Ang-2 induced mTOR and STAT3-S727 phosphorylation, unlike Ang-1 (FIG. 2a). Ang-1, however, induced Akt phosphorylation.
Three characterized Tie-2 receptor antibodies were used to determine if the Tie-2 receptor was expressed in the immature neural precursor cells found in the SVZ of the adult brain. When ligand is bound, the Tie-2 receptor becomes phosphorylated. An antibody that recognizes the activated receptor (RnD Systems, AF2720) and another antibody that binds to a distinct site (Santa Cruz, sc-324) identified many positive cells in the subventricular zone of the adult rat brain. In regions that were more distant from the ventricle, Tie-2 was expressed predominantly on blood vessels and endothelial cells reacted with antibodies against the activated receptor. Precursor cells that proliferate in vitro can be readily derived from the fetal and adult brain. The homogeneity of these cell populations in attached culture and their potential to generate neurons and glia is supported by clonal analysis. […] This colony number assay measured the survival of precursor cells that could differentiate into neurons and glia (See, Table 1).

Tie-2 receptor = assay: Tie-2 phosphorylation in fetal neural cells (Western blot); assay type: cell-based, mouse; details: exogenous addition, Western blot (FIG. 10a)
Protocol: as §1, with “Culture:” for “culture:”, “(Johe” for “(Johe,”, “3129,” for “3129-40,”, “our experiments,” for “the studies,”, “Neural Stem Cell (NSC)” for “NSC”
(§2) Pharmacological treatments: Unless otherwise stated, we used the following concentrations: Dll4 and Ang2 (in vitro, 500 ng/ml; in vivo 12.5 μg as a single injection), FGF2 (in vitro, 20 ng/ml), JAK inhibitor (in vitro, 200 nM; in vivo, 250 ng as a single injection), insulin (in vitro, 25 μg/ml; in vivo, 40 μg as a single injection), DAPT (1 μM), Fluorogold (0.5 μg). […]
Three characterized Tie-2 receptor antibodies were used to determine if the Tie-2 receptor was expressed in the immature neural precursor cells found in the SVZ of the adult brain. […] Precursor cells that proliferate in vitro can be readily derived from the fetal and adult brain. […] This colony number assay measured the survival of precursor cells that could differentiate into neurons and glia (See, Table 1).

adult rat SVZ NSCs = assay: Expansion of adult rat SVZ NSC / neural precursor cultures; assay type: cell-based
Protocol: as §1
(§3) Pharmacological treatments: Unless otherwise stated, the following concentrations were used: Dll4 and Ang-2 (in vitro, 500 ng/ml; in vivo 12.5 μg as a single injection), FGF2 (in vitro, 20 ng/ml), JAK inhibitor (in vitro, 200 nM; in vivo, 250 ng as a single injection), insulin (in vitro, 25 μg/ml; in vivo, 40 μg as a single injection), DAPT (1 μM), Fluorogold (0.5 μg). For the survival assays, compounds were added daily and Notch ligands every 2 days for the duration of the experiment. For the effects of kinase inhibitors on Notch activation, cells were pre-incubated for 1 h prior to Notch activation.
as §1, with “Culture:” for “culture:”, “(Johe” for “(Johe,”, “3129,” for “3129-40,”, “our experiments,” for “the studies,”, “Neural Stem Cell (NSC)” for “NSC”
as §2

Notch receptor = Notch receptor cleavage (activation) in NSC cultures; assay type: cell-based, mouse
Protocol: as §1, §3
It was previously shown that in NSCs Notch activation leads to rapid phosphorylation of Akt (Androutsellis-Theotokis, A. et al., Nature 442, 823-6, 2006), a mediator of insulin signalling (Cantley, Science 296, 1655-7, 2002). […] Activation of the Notch receptor by addition of insulin or Dll4 was inhibited by DAPT, a γ-secretase inhibitor that blocks Notch cleavage. […] Insulin maintained STAT3-Ser727 phosphorylation levels, and acutely (1-h) induced it following a 16-h insulin withdrawal phase (FIG. 1c).

With “Ang-2: human angiopoietin-2 (623-AN) from R&D; antagonist for angiopoietin-1 at Tie2” the mTOR phosphorylation (mTOR; NSC cultures, 0.5 μg/ml (FIG. 2a, Example 3)) was “induced”, the “effect on mTOR” value (mTOR; Western blots, fetal neural cells (FIG. 10a, Example 9)) was “no effect” and the “phosphorylation of Tie-2” value (Tie-2 receptor) was “promoted phosphorylation”. For the same substance, the “generation of adult rat SVZ NSCs in vitro” value (adult rat SVZ NSCs; 0.5 μg/ml, 5-d (FIG. 2b)) was “profoundly increased”, the “colony formation and overall cell numbers” value (adult rat SVZ NSCs; adult rat SVZ NSC cultures treated with Dll4) was “significantly increased” and the “increase in the numbers of proliferating cells” value (adult rat SVZ NSCs; cells from adult SVZ in culture, added to Dll4, insulin and FGF2, p=2.15×10^−5 (FIG. 10b)) was 7 fold.

In the case of “insulin: insulin (Sigma, 19278), growth factor”, the Notch activation (Notch receptor; acute (1 h) treatment after insulin withdrawal for 2 days) is reported as “induced Notch activation” and the “cleavage (activation) of the Notch receptor” value (Notch receptor; treatment of NSC cultures) is reported as “induced cleavage”.
